Measured values published in PubChem BioAssay (NCI).
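Grown in 96-well plates, cells were treated for 48 hours with each compound at five concentrations. Insufficient inhibition: endpoint recorded as highest concentration tested. GI50 is the concentration that inhibits growth by half. The concentration for full growth arrest is given as TGI.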

Assays:
Assay in all cases: NCI anticancer screen, dose series, 48 h
[1] = test system: HCT-116 colon
[2] = test system: CCRF-CEM leukemia
[3] = test system: K-562 leukemia
[4] = test system: PC-3 prostate
[5] = test system: NCI-H23 lung
[6] = test system: DU-145 prostate
[7] = test system: MDA-MB-435
[8] = test system: HL-60(TB) leukemia
[9] = test system: HCC-2998 colon
[10] = test system: SF-268 CNS
[11] = test system: SK-OV-3 ovarian
[12] = test system: OVCAR-3 ovarian
[13] = test system: RPMI-8226 leukemia
[14] = test system: RXF 393 renal
[15] = test system: SF-295 CNS
[16] = test system: OVCAR-5 ovarian
[17] = test system: SF-539 CNS
[18] = test system: SN12C renal
[19] = test system: ACHN renal
[20] = test system: SK-MEL-2 melanoma
[21] = test system: BT-549 breast
[22] = test system: OVCAR-8 ovarian
[23] = test system: HOP-62 NSCLC
[24] = test system: CAKI-1 renal
[25] = test system: NCI-H460 lung
[26] = test system: IGROV1 ovarian
[27] = test system: HT29 colon
[28] = test system: SW-620 colon
[29] = test system: LOX IMVI melanoma
[30] = test system: MOLT-4 leukemia
[31] = test system: U251 CNS
[32] = test system: MDA-MB-231 breast
[33] = test system: SR leukemia
[34] = test system: KM12 colon
[35] = test system: MCF7 breast
[36] = test system: 786-0 renal
[37] = test system: SK-MEL-28 melanoma
[38] = test system: NCI-H522 lung
[39] = test system: HS 578T breast
[40] = test system: TK-10 renal
[41] = test system: EKVX NSCLC
[42] = test system: COLO 205 colon
[43] = test system: SNB-75 CNS
[44] = test system: HCT-15 colon
[45] = test system: HOP-92 NSCLC
[46] = test system: UO-31 renal
[47] = test system: SNB-19 CNS
[48] = test system: NCI-H226 lung
[49] = test system: MALME-3M melanoma
[50] = test system: NCI/ADR-RES ovarian
[51] = test system: OVCAR-4 ovarian
[52] = test system: MDA-MB-468 breast
[53] = test system: UACC-257 melanoma
[54] = test system: M14 melanoma
[55] = test system: T-47D breast
[56] = test system: A498 renal
[57] = test system: A549 NSCLC
[58] = test system: SK-MEL-5 melanoma
[59] = test system: UACC-62 melanoma

Compound: Fc1ccccc1CNc1nc(SCCN2CCOCC2)nc2c1cnn2CC(Cl)c1ccc(Br)cc1 (stereo unspecified)
- GI50 [1]: 3.67 µM
- TGI [1]: > 100 µM
- GI50 [2]: 3.34 µM
- TGI [2]: > 100 µM
- GI50 [3]: 2.55 µM
- TGI [3]: > 100 µM
- GI50 [4]: 3.73 µM
- TGI [4]: > 100 µM
- GI50 [5]: 7.76 µM
- TGI [5]: > 100 µM
- GI50 [6]: 49.6 µM
- TGI [6]: > 100 µM
- GI50 [7]: 4.98 µM
- TGI [7]: > 100 µM
- GI50 [8]: 4.1 µM
- TGI [8]: > 100 µM
- GI50 [9]: 3.94 µM
- TGI [9]: > 100 µM
- GI50 [10]: 6.08 µM
- TGI [10]: > 100 µM
- GI50 [11]: > 100 µM
- TGI [11]: > 100 µM
- GI50 [12]: 37.4 µM
- TGI [12]: > 100 µM
- GI50 [13]: 2.67 µM
- TGI [13]: 8.25 µM
- GI50 [14]: 1.43 µM
- TGI [14]: 5.27 µM
- GI50 [15]: 3.04 µM
- TGI [15]: > 100 µM
- GI50 [16]: > 100 µM
- TGI [16]: > 100 µM
- GI50 [17]: 2.29 µM
- TGI [17]: 6.94 µM
- GI50 [18]: 5.93 µM
- TGI [18]: > 100 µM
- GI50 [19]: 4.39 µM
- TGI [19]: > 100 µM
- GI50 [20]: 2.9 µM
- TGI [20]: 11.7 µM
- GI50 [21]: 20.9 µM
- TGI [21]: > 100 µM
- GI50 [22]: 6.36 µM
- TGI [22]: > 100 µM
- GI50 [23]: 7.35 µM
- TGI [23]: > 100 µM
- GI50 [24]: 3.83 µM
- TGI [24]: > 100 µM
- GI50 [25]: 3.99 µM
- TGI [25]: > 100 µM
- GI50 [26]: > 100 µM
- TGI [26]: > 100 µM
- GI50 [27]: 1.47 µM
- TGI [27]: 3.39 µM
- GI50 [28]: 2.05 µM
- TGI [28]: 5.39 µM
- GI50 [29]: 2.6 µM
- TGI [29]: 7.91 µM
- GI50 [30]: 3.46 µM
- TGI [30]: > 100 µM
- GI50 [31]: 5.93 µM
- TGI [31]: > 100 µM
- GI50 [32]: 3.6 µM
- TGI [32]: > 100 µM
- GI50 [33]: 4.8 µM
- TGI [33]: > 100 µM
- GI50 [34]: 3.74 µM
- TGI [34]: > 100 µM
- GI50 [35]: 3.58 µM
- TGI [35]: > 100 µM
- GI50 [36]: 3.31 µM
- TGI [36]: 30.6 µM
- GI50 [37]: 4.99 µM
- TGI [37]: > 100 µM
- GI50 [38]: 5.16 µM
- TGI [38]: > 100 µM
- GI50 [39]: 3.6 µM
- TGI [39]: > 100 µM
- GI50 [40]: > 100 µM
- TGI [40]: > 100 µM
- GI50 [41]: 5.28 µM
- TGI [41]: > 100 µM
- GI50 [42]: 2.8 µM
- TGI [42]: 8.12 µM
- GI50 [43]: 2.71 µM
- TGI [43]: > 100 µM
- GI50 [44]: 1.69 µM
- TGI [44]: 3.95 µM
- GI50 [45]: 3.96 µM
- TGI [45]: > 100 µM
- GI50 [46]: 3.13 µM
- TGI [46]: > 100 µM
- GI50 [47]: 7.08 µM
- TGI [47]: > 100 µM
- GI50 [48]: 3.52 µM
- TGI [48]: > 100 µM
- GI50 [49]: 2.54 µM
- TGI [49]: 6.89 µM
- GI50 [50]: 4.24 µM
- TGI [50]: > 100 µM
- GI50 [51]: 3.49 µM
- TGI [51]: > 100 µM
- GI50 [52]: 2.26 µM
- TGI [52]: 7 µM
- GI50 [53]: 3.38 µM
- TGI [53]: 79.1 µM
- GI50 [54]: 4.19 µM
- TGI [54]: > 100 µM
- GI50 [55]: 2.87 µM
- TGI [55]: > 100 µM
- GI50 [56]: 8.94 µM
- TGI [56]: > 100 µM
- GI50 [57]: 4.06 µM
- TGI [57]: > 100 µM
- GI50 [58]: 2.87 µM
- TGI [58]: 10.7 µM
- GI50 [59]: 2.09 µM
- TGI [59]: 5.23 µM

Compound: O=Cc1cncc(-c2ccc3ncnc(N4CCc5cc(F)c(Cl)cc54)c3c2)c1
- GI50 [1]: 5.41 µM
- TGI [1]: 20.4 µM
- GI50 [2]: 3.08 µM
- TGI [2]: 14.9 µM
- GI50 [3]: 7.74 µM
- TGI [3]: > 100 µM
- GI50 [4]: 2.84 µM
- TGI [4]: 18.2 µM
- GI50 [5]: 10.2 µM
- TGI [5]: 27.1 µM
- GI50 [6]: 3.93 µM
- TGI [6]: > 100 µM
- GI50 [7]: 6.39 µM
- TGI [7]: 25.1 µM
- GI50 [8]: 2.22 µM
- TGI [8]: 22.1 µM
- GI50 [9]: 9.79 µM
- TGI [9]: 23.1 µM
- GI50 [10]: 5.14 µM
- TGI [10]: > 100 µM
- GI50 [11]: 2.66 µM
- TGI [11]: 9.59 µM
- GI50 [12]: 2.26 µM
- TGI [12]: 34.9 µM
- GI50 [13]: 3.14 µM
- TGI [13]: 22.6 µM
- GI50 [14]: 1.23 µM
- TGI [14]: 4.32 µM
- GI50 [15]: 3.98 µM
- TGI [15]: 21.5 µM
- GI50 [16]: 4.01 µM
- TGI [16]: 22.1 µM
- GI50 [17]: 3.75 µM
- TGI [17]: 18.7 µM
- GI50 [18]: 2.71 µM
- TGI [18]: 21.2 µM
- GI50 [19]: 1.02 µM
- TGI [19]: 13.5 µM
- GI50 [20]: 12.1 µM
- TGI [20]: 28.5 µM
- GI50 [21]: 1.77 µM
- TGI [21]: 12.5 µM
- GI50 [22]: 4.71 µM
- TGI [22]: 46.3 µM
- GI50 [23]: 2.47 µM
- TGI [23]: 26 µM
- GI50 [24]: 1.31 µM
- TGI [24]: 16 µM
- GI50 [25]: 4.49 µM
- TGI [25]: 20.2 µM
- GI50 [26]: 1.05 µM
- TGI [26]: 4.78 µM
- GI50 [27]: 11.1 µM
- TGI [27]: 34.8 µM
- GI50 [28]: 10.3 µM
- TGI [28]: 26.1 µM
- GI50 [29]: 3.68 µM
- TGI [29]: 17.4 µM
- GI50 [30]: 2.45 µM
- TGI [30]: 7.06 µM
- GI50 [31]: 11.1 µM
- TGI [31]: 34 µM
- GI50 [32]: 4.85 µM
- TGI [32]: 25.3 µM
- GI50 [33]: 3.77 µM
- TGI [33]: 23.7 µM
- GI50 [34]: 15.4 µM
- TGI [34]: 49.3 µM
- GI50 [35]: 1.64 µM
- TGI [35]: 7.38 µM
- GI50 [36]: 2.11 µM
- TGI [36]: 16.1 µM
- GI50 [37]: 7.95 µM
- TGI [37]: 25.2 µM
- GI50 [38]: 11 µM
- TGI [38]: 30.6 µM
- GI50 [39]: 1.74 µM
- TGI [39]: 8.98 µM
- GI50 [40]: 1.32 µM
- TGI [40]: 10.5 µM
- GI50 [41]: 1.25 µM
- TGI [41]: 8.09 µM
- GI50 [42]: 15.6 µM
- TGI [42]: 32.6 µM
- GI50 [43]: 1 µM
- TGI [43]: 10 µM
- GI50 [44]: 3.41 µM
- TGI [44]: 17.2 µM
- GI50 [45]: 1.86 µM
- TGI [45]: 11.9 µM
- GI50 [46]: 0.523 µM
- TGI [46]: 13.8 µM
- GI50 [47]: 4.73 µM
- TGI [47]: 35 µM
- GI50 [48]: 5.1 µM
- TGI [48]: 23.9 µM
- GI50 [49]: 2.72 µM
- TGI [49]: 18.6 µM
- GI50 [50]: 5.31 µM
- TGI [50]: 36.6 µM
- GI50 [51]: 5.18 µM
- TGI [51]: 41.1 µM
- GI50 [52]: 1.22 µM
- TGI [52]: 3.21 µM
- GI50 [53]: 8.62 µM
- TGI [53]: 25.9 µM
- GI50 [54]: 5.51 µM
- TGI [54]: 20.9 µM
- GI50 [55]: 1.31 µM
- TGI [55]: 11.1 µM
- GI50 [56]: 0.898 µM
- TGI [56]: 6.88 µM
- GI50 [57]: 2.64 µM
- TGI [57]: 17.1 µM
- GI50 [58]: 4.38 µM
- TGI [58]: 17.6 µM
- GI50 [59]: 2.02 µM
- TGI [59]: 12.4 µM
